Measurements from patent US5057523A, “Dipeptide quinolone derivatives” (Abbott Laboratories, priority 1989, dated 1991).
In brackets after ≈: the same amount, converted by molar mass.

Experiments:
[1] = test system: PSEUDOMONAS AERUGINOSA K799/WT; assay: In vitro antibacterial activity, agar dilution MIC (BHIA); format: cell-based; conditions: BHI agar
ESCHERICHIA COLI KNK 437 = assay: as above; format: cell-based; conditions: BHI agar
[2] = test system: MICROCOCCUS LUTEUS ATCC 9341; assay: as above; format: cell-based; conditions: BHI agar
[3] = test system: PSEUDOMONAS AERUGINOSA BMH10; assay: as above; format: cell-based; conditions: BHI agar
[4] = test system: STREPTOCOCCUS PYOGENES 930 CONST; assay: as above; format: cell-based; conditions: BHI agar
[5] = test system: ENTEROCOCCUS FAECIUM ATCC 8043; assay: as above; format: cell-based; conditions: BHI agar
[6] = test system: MICROCOCCUS LUTEUS ATCC 4698; assay: as above; format: cell-based; conditions: BHI agar
ACINETOBACTER SP CMX 669 = assay: as above; format: cell-based; conditions: BHI agar
PSEUDOMONAS CEPACIA 2961 = assay: as above; format: cell-based; conditions: BHI agar
[7] = test system: STREPTOCOCCUS BOVIS A5169; assay: as above; format: cell-based; conditions: BHI agar
[8] = test system: PROVIDENCIA STUARTII CMX 640; assay: as above; format: cell-based; conditions: BHI agar
[9] = test system: STREPTOCOCCUS AGALACTIAE CMX 508; assay: as above; format: cell-based; conditions: BHI agar
[10] = test system: PSEUDOMONAS AERUGINOSA K799/61; assay: as above; format: cell-based; conditions: BHI agar
[11] = test system: STREPTOCOCCUS PYOGENES 2548 INDUC; assay: as above; format: cell-based; conditions: BHI agar
[12] = test system: PSEUDOMONAS AERUGINOSA A5007; assay: as above; format: cell-based; conditions: BHI agar
[13] = test system: STREPTOCOCCUS PYOGENES EES61; assay: as above; format: cell-based; conditions: BHI agar
ESCHERICHIA COLI JUHL = assay: as above; format: cell-based; conditions: BHI agar
[14] = test system: ENTEROBACTER AEROGENES ATCC 13048; assay: as above; format: cell-based; conditions: BHI agar
ESCHERICHIA COLI SS = assay: as above; format: cell-based; conditions: BHI agar
From the text: (§1) The MIC results are in μg/ml.

ESCHERICHIA COLI DC-2 = assay: as above; format: cell-based; conditions: BHI agar
From the text: as §1

ESCHERICHIA COLI H560 = assay: as above; format: cell-based; conditions: BHI agar
From the text: as §1

[15] = test system: KLEBSIELLA PNEUMONIAE ATCC 8045; assay: as above; format: cell-based; conditions: BHI agar
Stap. Aureus NCTC 10649 = assay: Acute mouse protection test; format: in vivo; conditions: mice infected intraperitoneally with Stap. Aureus NCTC 10649, dosed at 1 and 5 hours post-infection
P. Aeruginosa A5007 = assay: Acute mouse protection test; format: in vivo; conditions: mice infected intraperitoneally with P. Aeruginosa A5007, dosed at 1 and 5 hours post-infection
E. Coli Juhl [16] = assay: Acute mouse protection test; format: in vivo; conditions: mice infected intraperitoneally with E. Coli JUHL, dosed at 1 and 5 hours post-infection
Stap. Aureus CMX 553 = assay: Second in vitro test, MIC in Brain Heart Infusion Broth (BHIB)
Procedure: (§2) The in vitro antibacterial activity of the test compounds was determined by conventional agar dilution procedures. The organisms were grown overnight in brain-heart infusion (BHI) broth (Difco 0037-01-6) at 36° C. Twofold dilutions of the stock solution (2000 mcg/mL) of the test compound were made in BHI agar to obtain a test concentration ranging from 200 to 0.005 mcg/mL. The plate was inoculated with approximately 10^4 organisms. It was then incubated at 36° C. for 18 h.

[17] = Aqueous solubility (water and pH 7.4); conditions: the sign > refers to an approximate value, solubility may be within 10% higher
E. Coli Juhl [18] = assay: Second in vitro test, MIC in Brain Heart Infusion Broth (BHIB)
Procedure: as §2

[19] = Conversion of prodrug to parent drug in whole blood at 37° C.; format: in vitro ADME; conditions: conversion to parent drug in dog whole blood at 37° C.; seconds; two values = two prodrug peaks
Procedure: An aqueous solution of prodruq (Z) is spiked into fresh whole blood containing sodium heparin as an anticoagulant. The sample is mixed gently by inversion and placed in a 37° waterbath. At selected time intervals an 0.5 ml aliquot of blood is removed and placed in a chilled 1.5 ml centrifuge tube (ice temperature). Samples are centrifuges at 13,000 rpm for two minutes to separate plasma. An 0.2 ml aliquot of the plasma sample is combined with 0.2 ml internal standard (7-(4-amino-2-methyl-1-pyrrolidinyl)-1-(2,4-difluorophenyl)-6-fluoro-1,4-d ihydro-4-oxo-1,8-naphthyridine-3-carboxylic acid in 0.2 M sodium phosphate pH 7.2 buffer) and 6 mls CH2 Cl2 :EtoH (9:1 by volume). Samples are capped and shaken gently for 10 minutes. Samples are centrifuqes at 2500 rpm for 10 minutes (4° C.). The aqueous layer is aspirated to waste and the organic layer is transferred to a conical centrifuge tube and evaporated to dryness with a stream of dry air and low heat […]. Samples are reconstituted with 0.2 ml mobile phase followed by vortexing. Samples are centrifuqes at 2500 rpm for 10 minutes to separate precipitate. The supernatant is transferred to a WISP vial with plastic insert for HPLC analysis.

[20] = Plasma level in dog after oral dose; format: in vivo; conditions: 10 mg equivalent/kg oral dose, HPLC
From the text: The plasma samples were collected and determined by the HPLC analysis.

Ps. Aeruginosa A5007 = assay: Second in vitro test, MIC in Brain Heart Infusion Broth (BHIB)
Procedure: as §2

Strep pyogenes EES 61 = assay: as above
Procedure: as §2

Row | Compound | MIC [1] [µg/mL] | MIC (ESCHERICHIA COLI KNK 437) [µg/mL] | MIC [2] [µg/mL] | MIC [3] [µg/mL] | MIC [4] | MIC ([5]; ENTEROCOCCUS FAECIUM ATCC 8043) | MIC [6] | MIC (ACINETOBACTER SP CMX 669) [µg/mL] | MIC (PSEUDOMONAS CEPACIA 2961) [µg/mL] | MIC [8] [µg/mL] | MIC [10] | MIC [12] [µg/mL] | MIC [14] [µg/mL] | MIC (ESCHERICHIA COLI SS) | MIC (ESCHERICHIA COLI DC-2) [µg/mL] | MIC (ESCHERICHIA COLI H560) | Oral (ED50) (Stap. Aureus NCTC 10649) [mg/kg/day] | Oral (ED50) (P. Aeruginosa A5007) [mg/kg/day] | Oral (ED50) (E. Coli Juhl [16]) [mg/kg/day] | Water Solubility [17] [mg/mL] | other results
1 | 7-[3-Norvaline-amino-1-pyrrolidinyl]-1-(2,4-difluoro-phenyl)- 6-fluoro-1,4-dihydro-4-oxo-1,8-naphthyridine-3-carboxylic acid hydrochloride [Example 2b] | 6.2 | 6.2 | 25 | 6.2 | .78 µg/mL | .78 µg/mL | 25 µg/mL | 3.1 | 50 | 50 | .39 µg/mL | 12.5 | 3.1 | .02 µg/mL | 12.5 | .78 µg/mL |  |  |  |  | MIC ([7]; STREPTOCOCCUS BOVIS A5169): 1.56 µg/mL; MIC ([9]; STREPTOCOCCUS AGALACTIAE CMX 508): 1.56 µg/mL; MIC [11]: .39 µg/mL; MIC ([13]; STREPTOCOCCUS PYOGENES EES61): 1.56 µg/mL; MIC (ESCHERICHIA COLI JUHL): .78 µg/mL; MIC [15]: .39 µg/mL
2 | Cl.NCC(=O)N[C@@H](Cc1ccccc1)C(=O)NC1CCN(c2nc3c(cc2F)c(=O)c(C(=O)O)cn3-c2ccc(F)cc2F)C1 (stereo partly drawn) [Example 1b, 7-[(3-Gly-L-Phe-amino)-1-pyrrolidinyl]-1-(2,4-difluorophenyl)-6-fluoro-1,4-dihydro-4-oxo-1,8-naphthyridine-3-carboxyli c acid hydrochloride] | 25 | 25 | 6.25 | 25 | .78 µg/mL |  | .78 µg/mL | 12.5 | 50 | 100 | 12.5 µg/mL | 25 | 12.5 | .2 µg/mL | 100 | 1.56 µg/mL | 0.7 | 27.3 | 1.8 |  | MIC ([5]; EN[…] ATCC 8043): 1.56 µg/mL; MIC ([7]; STR[…] A5169): 1.56 µg/mL; MIC ([9]; STR[…] 508): 1.56 µg/mL; MIC [11]: .78 µg/mL; MIC ([13]; STR[…] EES61): 1.56 µg/mL; MIC (ESCHERICHIA COLI JUHL): 3.12 µg/mL; MIC [15]: 12.5 µg/mL
3 | CCC[C@H](NC(=O)[C@@H](N)CCC)C(=O)NC1CCN(c2nc3c(cc2F)c(=O)c(C(=O)O)cn3-c2ccc(F)cc2F)C1.Cl (stereo partly drawn) [Example 3b, 7-(3-L-Norvaline-L-Norvalineamino-1-pyrrolidinyl)-1-(2,4-difluorophenyl)-6-fluoro-1,4-dihydro-4-oxo-1,8-naphthyridine-3-carboxylic acid hydrochloride] |  |  |  |  |  |  |  |  |  |  |  |  |  |  |  |  | 1.8 | 9.1 | 4.0 | > 40 | MIC (Stap. Aureus CMX 553): 12.5 µg/mL; MIC (E. Coli Juhl [18]): 25 µg/mL; Half Life Dog [19]: 1.44 min; C max (range) ([20]; maximum plasma concentration): 1.9 (1.5-2.2) mcg/ml; AUC (0-32 h) ([20]; plasma, 0-32 h): 10.2 µg·h/mg; MIC (Ps. Aeruginosa A5007): 50 µg/mL; MIC (Strep pyogenes EES 61): 12.5 µg/mL
4 | CC(N)C(=O)NC(C)C(=O)NC1CCN(c2nc3c(cc2F)c(=O)c(C(=O)O)cn3-c2ccc(F)cc2F)C1 (stereo not drawn) [Example 15] | 50 (≈ 91.5 µM) | 50 (≈ 91.5 µM) | > 100 | 100 (≈ 183 µM) |  | 50 µg/mL (≈ 91.5 µM) | 100 µg/mL (≈ 183 µM) |  | 50 (≈ 91.5 µM) | 100 (≈ 183 µM) | 3.1 µg/mL (≈ 5.67 µM) | 100 (≈ 183 µM) | 25 (≈ 45.7 µM) | .39 µg/mL (≈ 0.714 µM) | 100 (≈ 183 µM) | 6.2 µg/mL (≈ 11.3 µM) | 1.3 | 9.1 | 2.0 |  | MIC ([7]; STREPTOCOCCUS BOVIS A5169): 50 µg/mL (≈ 91.5 µM)
5 | CCC[C@H](NC(=O)[C@H](C)N)C(=O)NC1CCN(c2nc3c(cc2F)c(=O)c(C(=O)O)cn3-c2ccc(F)cc2F)C1 (stereo partly drawn) [Example 55b, 7-(3-Ala-Nval-amino-1-pyrrolidinyl)-6-fluoro-1-(2,4-difluorophenyl)-1,4-di hydro-4-oxo-1,8-naphthyridine-3-carboxylic acid] |  |  |  |  |  |  |  |  |  |  |  |  |  |  |  |  |  |  |  | 26 | 
6 | NC1CCN(c2nc3c(cc2F)c(=O)c(C(=O)O)cn3-c2ccc(F)cc2)C1 (stereo not drawn) [compound A, 7-(3-amino-1-pyrrolidinyl)-6-fluoro-1-(4-fluorophenyl)-1,4-dihydro-4-oxo-1 ,8-naphthyridine-3-carboxylic acid, reference compound] |  |  |  |  |  |  |  |  |  |  |  |  |  |  |  |  |  |  |  | 1.4 | 
